The target of experiment [1] is T1, PRMT5 (Homo sapiens, UniProt O14744).
T1 construct: purchased Viva (custom protein)
The experiment is described as follows: PRMT5 IC50 assay in the presence of SAM as cofactor. It counts as biochemical. Summed up: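 For the SAM-containing format, dividing IC50 by 1.5 yields Ki; for the MTA-containing format the divisor is 13.5. A third format without cofactor gives IC50 alone.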

Experiment [2] addresses T1, PRMT5. Briefly: PRMT5 IC50 assay in the presence of MTA as cofactor. It is filed as biochemical. The note with it: for IC50: PRMT5, MTA as cofactor; for SAM/MTA Ratio: ratio between Ki in the presence of SAM and Ki in the presence of MTA. Summed up: (§1)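 IC50 values were measured against human PRMT5 with SAM, with MTA, or with no cofactor. Ki was derived from IC50 as Ki=IC50/1.5 with SAM and Ki=IC50/13.5 with MTA, and the Ki(SAM)/Ki(MTA) ratio was then taken.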

A further experiment concerns HAP1 MTAP-deleted. The experiment is described as follows: SDMA in-cell western assay, HAP1 MTAP-deleted cell line. It is filed as cell-based. The note with it: for IC50: Homo sapiens, HAP1 MTAP-deleted cell line; for MTAP Intact/Deleted Ratio: IC50 ratio HAP1 MTAP-intact / HAP1 MTAP-deleted. Summed up:
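Readout is cellular SDMA signal by in-cell western, with IC50 values derived from it. The cells are MTAP-null HAP1, matched to an isogenic MTAP-intact HAP1 line.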

The next experiment deals with HAP1 MTAP-intact. Briefly: SDMA in-cell western assay, HAP1 MTAP-intact cell line. It is filed as cell-based. The note with it: Homo sapiens. The method, boiled down:
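IC50 values come from SDMA in-cell western staining of HAP1 cells. The MTAP-intact line carries endogenous MTAP, while its MTAP-deleted counterpart lacks MTAP entirely. A selectivity ratio of at least 3 fold marks a compound as MTAP-selective.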

Experiment [3] concerns the target T1, PRMT5. The experiment is described as follows: PRMT5 IC50 assay with no cofactor. The following applies: read-out: No Co-factor IC50. It counts as biochemical. Summed up: as §1

In general, IC50 refers to the concentration that inhibits the measured activity by half.

T1 sequence (O14744 whole entry): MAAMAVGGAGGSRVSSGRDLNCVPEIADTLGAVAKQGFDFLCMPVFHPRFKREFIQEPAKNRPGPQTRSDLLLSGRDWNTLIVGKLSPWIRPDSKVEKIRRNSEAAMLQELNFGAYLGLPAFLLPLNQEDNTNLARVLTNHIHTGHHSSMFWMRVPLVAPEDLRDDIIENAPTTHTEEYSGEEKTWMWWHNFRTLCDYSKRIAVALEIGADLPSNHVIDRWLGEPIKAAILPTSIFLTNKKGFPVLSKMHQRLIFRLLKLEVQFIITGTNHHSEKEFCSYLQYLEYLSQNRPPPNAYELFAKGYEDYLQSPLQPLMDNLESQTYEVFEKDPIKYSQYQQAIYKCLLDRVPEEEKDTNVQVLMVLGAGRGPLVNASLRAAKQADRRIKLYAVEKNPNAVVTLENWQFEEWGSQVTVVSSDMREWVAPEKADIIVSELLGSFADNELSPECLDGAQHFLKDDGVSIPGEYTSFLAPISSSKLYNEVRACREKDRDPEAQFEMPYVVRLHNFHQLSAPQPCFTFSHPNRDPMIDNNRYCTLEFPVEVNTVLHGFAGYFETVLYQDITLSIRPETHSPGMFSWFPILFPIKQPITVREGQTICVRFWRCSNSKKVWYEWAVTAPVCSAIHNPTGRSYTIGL
T1 sequence (Q9BQA1 whole entry partner): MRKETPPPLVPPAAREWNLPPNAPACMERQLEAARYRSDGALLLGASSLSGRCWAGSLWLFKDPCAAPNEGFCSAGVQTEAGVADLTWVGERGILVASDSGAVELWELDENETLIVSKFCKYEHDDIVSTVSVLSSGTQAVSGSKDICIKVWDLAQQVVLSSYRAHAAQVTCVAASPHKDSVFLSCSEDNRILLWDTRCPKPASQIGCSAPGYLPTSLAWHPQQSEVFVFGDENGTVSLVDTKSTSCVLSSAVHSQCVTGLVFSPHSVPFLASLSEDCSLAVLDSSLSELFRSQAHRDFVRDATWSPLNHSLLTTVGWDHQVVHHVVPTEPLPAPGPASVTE

Take `COCCN(C)c1nc(NC2COC2)cc(C(=O)NC[C@H](O)CN2CCc3cc(OCc4ocnc4C)ccc3C2)n1` [Compound 408, N-[(2S)-2-hydroxy-3-{6-[(4-methyl-1,3-oxazol-5-yl)methoxy]-1,2,3,4-tetrahydroisoquinolin-2-yl}propyl]-2-[(2-methoxyethyl)(methyl)amino]-6-[(oxetan-3-yl)amino]pyrimidine-4-carboxamide]: the IC50 at PRMT5 [1] was 0.05 to 0.5 µM; at PRMT5 [2], 0.05 to 0.5 µM; with HAP1 MTAP-deleted it was under 1 µM; in the experiment on HAP1 MTAP-intact, under 1 µM; at PRMT5 [3] it was 0.5 to 5 µM. Further, the “SAM/MTA Ratio” value on PRMT5 [2] was “A (a Ki ratio greater than or equal to 10 fold between the Ki in the presence of SAM and the Ki in the presence of MTA)”. In addition, the “MTAP Intact/Deleted Ratio” value in the experiment with HAP1 MTAP-deleted is “C* (an IC50 ratio of less than 3 fold between the IC50 in the HAP1 MTAP-intact cell line and the HAP1 MTAP-deleted cell line)”.

Take `CCC(=O)N1CCN(c2nc(NC3COC3)cc(C(=O)NC[C@H](O)CN3CCc4cc(OCc5ocnc5C)ccc4C3)n2)CC1` [Compound 409, N-[(2S)-2-hydroxy-3-{6-[(4-methyl-1,3-oxazol-5-yl)methoxy]-1,2,3,4-tetrahydroisoquinolin-2-yl}propyl]-6-[(oxetan-3-yl)amino]-2-(4-propanoylpiperazin-1-yl)pyrimidine-4-carboxamide]: the IC50 was 0.05 to 0.5 µM at PRMT5 [1]; 0.05 to 0.5 µM at PRMT5 [2]; 1 to 10 µM in the experiment on HAP1 MTAP-deleted; at least 10 µM with HAP1 MTAP-intact; 0.5 to 5 µM at PRMT5 [3]. Further, the “SAM/MTA Ratio” value on PRMT5 [2] was “A (a Ki ratio greater than or equal to 10 fold between the Ki in the presence of SAM and the Ki in the presence of MTA)”. In addition, the “MTAP Intact/Deleted Ratio” value with HAP1 MTAP-deleted is “B* (an IC50 ratio greater than or equal to 3 fold but lower than 10 fold between the IC50 in the HAP1 MTAP-intact cell line and the HAP1 MTAP-deleted cell line)”.

For the compound `CCN1CCN(c2cc(C(=O)NC[C@H](O)CN3CCc4cc(OCc5ocnc5C)ccc4C3)cc(NC3CCC3)n2)CC1` [Compound 410, 2-(cyclobutylamino)-6-(4-ethylpiperazin-1-yl)-N-[(2S)-2-hydroxy-3-{6-[(4-methyl-1,3-oxazol-5-yl)methoxy]-1,2,3,4-tetrahydroisoquinolin-2-yl}propyl]pyridine-4-carboxamide], the IC50 is 0.05 to 0.5 µM at PRMT5 [1]; 0.05 to 0.5 µM on PRMT5 [2]; under 1 µM in the experiment on HAP1 MTAP-deleted; under 1 µM in the experiment on HAP1 MTAP-intact; 0.5 to 5 µM on PRMT5 [3]. Also, the “SAM/MTA Ratio” value at PRMT5 [2] is “A (a Ki ratio greater than or equal to 10 fold between the Ki in the presence of SAM and the Ki in the presence of MTA)”. The “MTAP Intact/Deleted Ratio” value in the experiment on HAP1 MTAP-deleted was “B* (an IC50 ratio greater than or equal to 3 fold but lower than 10 fold between the IC50 in the HAP1 MTAP-intact cell line and the HAP1 MTAP-deleted cell line)”.

In the case of `Cc1ncoc1COc1ccc2c(c1C)CCN(C[C@@H](O)CNC(=O)c1cc(NC3CCC3)nc(N3CCN(C(=O)C4CC4)CC3)c1)C2` [Compound 411, 2-(cyclobutylamino)-6-(4-cvclopropanecarbonylpiperazin-1-yl)-N-[(2S)-2-hydroxy-3-{5-methyl-6-[(4-methyl-1,3-oxazol-5-yl)methoxy]1,2,3,4-tetrahydroisoquinolin-2-yl}propyl]pyridine-4-carboxamide], the IC50 is 0.05 to 0.5 µM at PRMT5 [1]; 0.05 to 0.5 µM on PRMT5 [2]; under 1 µM with HAP1 MTAP-deleted; at least 10 µM with HAP1 MTAP-intact; 0.5 to 5 µM at PRMT5 [3]. The “SAM/MTA Ratio” value at PRMT5 [2] was “A (a Ki ratio greater than or equal to 10 fold between the Ki in the presence of SAM and the Ki in the presence of MTA)”. The “MTAP Intact/Deleted Ratio” value in the experiment on HAP1 MTAP-deleted is “A* (an IC50 ratio greater than or equal to 10 fold between the IC50 in the HAP1 MTAP-intact cell line and the HAP1 MTAP-deleted cell line)”.

In the case of `CC(=O)N1CCC(Nc2cc(C(=O)NC[C@H](O)CN3CCc4nc(OCc5cnco5)ccc4C3)ncn2)CC1` [Compound 412, 6-[(1-acetyl-4-piperidyl)amino]-N-[(2S)-2-hydroxy-3-[2-(oxazol-5-ylmethoxy)-7,8-dihydro-5H-1,6-naphthyridin-6-yl]propyl]pyrimidine-4-carboxamide], the IC50 on PRMT5 [1] was 0.5 to 5 µM; at PRMT5 [2] it was 0.05 to 0.5 µM; in the experiment on HAP1 MTAP-deleted it was at least 10 µM; with HAP1 MTAP-intact it was at least 10 µM; at PRMT5 [3], at least 5 µM. For the same compound, at PRMT5 [2], the “SAM/MTA Ratio” value was “A (a Ki ratio greater than or equal to 10 fold between the Ki in the presence of SAM and the Ki in the presence of MTA)”. For the same compound, the “MTAP Intact/Deleted Ratio” value with HAP1 MTAP-deleted was “C* (an IC50 ratio of less than 3 fold between the IC50 in the HAP1 MTAP-intact cell line and the HAP1 MTAP-deleted cell line)”.

On to `O=C(NC[C@H](O)CN1CCc2nc(OCc3cnco3)ccc2C1)c1ccnc(NC2CCC2)c1` [Compound 413, 2-(cyclobutylamino)-N-[(2S)-2-hydroxy-3-[2-(oxazol-5-ylmethoxy)-7,8-dihydro-5H-1,6-naphthyridin-6-yl]propyl]pyridine-4-carboxamide], for which the IC50 at PRMT5 [1] is 0.5 to 5 µM; at PRMT5 [2], 0.5 to 5 µM; with HAP1 MTAP-deleted, at least 10 µM; with HAP1 MTAP-intact, at least 10 µM; at PRMT5 [3], at least 5 µM. In addition, the “SAM/MTA Ratio” value on PRMT5 [2] was “A (a Ki ratio greater than or equal to 10 fold between the Ki in the presence of SAM and the Ki in the presence of MTA)”. Further, the “MTAP Intact/Deleted Ratio” value with HAP1 MTAP-deleted is “C* (an IC50 ratio of less than 3 fold between the IC50 in the HAP1 MTAP-intact cell line and the HAP1 MTAP-deleted cell line)”.

Consider `Cc1ncoc1COc1ccc2c(c1C)CCN(C[C@@H](O)CNC(=O)c1cc(NC3COC3)nc(N3CCN(C(=O)C4CC4)CC3)n1)C2` [Compound 414, 2-(4-cyclopropanecarbonylpiperazin-1-yl)-N-[(2S)-2-hydroxy-3-{5-methyl-6-[(4-methyl-1,3-oxazol-5-yl)methoxy]-1,2,3,4-tetrahydroisoquinolin-2-yl}propyl]-6-[(oxetan-3-yl)amino]pyrimidine-4-carboxamide], for which the IC50 on PRMT5 [1] was 0.05 to 0.5 µM; on PRMT5 [2], 0.05 to 0.5 µM; in the experiment with HAP1 MTAP-deleted it was under 1 µM; in the experiment on HAP1 MTAP-intact, at least 10 µM; at PRMT5 [3], at least 5 µM. For the same compound, the “SAM/MTA Ratio” value on PRMT5 [2] was “A (a Ki ratio greater than or equal to 10 fold between the Ki in the presence of SAM and the Ki in the presence of MTA)”. The “MTAP Intact/Deleted Ratio” value with HAP1 MTAP-deleted was “A* (an IC50 ratio greater than or equal to 10 fold between the IC50 in the HAP1 MTAP-intact cell line and the HAP1 MTAP-deleted cell line)”.

Take `CCCN(C)c1cc(C(=O)NC[C@H](O)CN2CCc3cc(OCc4cnco4)ccc3C2)cc(NC2CCC2)n1` [Compound 415]: the IC50 at PRMT5 [1] was 0.05 to 0.5 µM; on PRMT5 [2], 0.05 to 0.5 µM; in the experiment on HAP1 MTAP-deleted, under 1 µM; with HAP1 MTAP-intact, 1 to 10 µM; on PRMT5 [3] it was 0.5 to 5 µM. Moreover, the “SAM/MTA Ratio” value on PRMT5 [2] is “A (a Ki ratio greater than or equal to 10 fold between the Ki in the presence of SAM and the Ki in the presence of MTA)”. Moreover, in the experiment with HAP1 MTAP-deleted, the “MTAP Intact/Deleted Ratio” value is “C* (an IC50 ratio of less than 3 fold between the IC50 in the HAP1 MTAP-intact cell line and the HAP1 MTAP-deleted cell line)”.

Turning to `Cc1ncoc1COc1ccc2c(c1)CCN(C[C@@H](O)CNC(=O)c1ccc(OC3CCN(Cc4ccncc4)CC3)cc1)C2` [Compound 416, N-[(2S)-2-hydroxy-3-{6-[(4-methyl-1,3-oxazol-5-yl)methoxy]-1,2,3,4-tetrahydroisoquinolin-2-yl}propyl]-4-{[1-[(pyridin-4-yl)methyl]piperidin-4-yl}oxy)benzamide], the IC50 at PRMT5 [1] was 0.05 to 0.5 µM; at PRMT5 [2], 0.05 to 0.5 µM; in the experiment on HAP1 MTAP-deleted, under 1 µM; in the experiment on HAP1 MTAP-intact it was under 1 µM; at PRMT5 [3] it was 0.5 to 5 µM. Moreover, the “SAM/MTA Ratio” value on PRMT5 [2] was “A (a Ki ratio greater than or equal to 10 fold between the Ki in the presence of SAM and the Ki in the presence of MTA)”. Moreover, in the experiment with HAP1 MTAP-deleted, the “MTAP Intact/Deleted Ratio” value was “C* (an IC50 ratio of less than 3 fold between the IC50 in the HAP1 MTAP-intact cell line and the HAP1 MTAP-deleted cell line)”.

`CCC(=O)N1CCN(c2cc(C(=O)NC[C@H](O)CN3CCc4c(ccc(OCc5ocnc5C)c4C)C3)cc(NC3CCC3)n2)CC1` [Compound 417, 2-(cyclobutylamino)-N-[(2S)-2-hydroxy-3-{5-methyl-6-[(4-methyl-1,3-oxazol-5-yl)methoxy]-1,2,3,4-tetrahydroisoquinolin-2-yl}propyl]-6-(4-propanoylpiperazin-1-yl)pyridine-4-carboxamide]: the IC50 is 0.05 to 0.5 µM on PRMT5 [1]; 0.05 to 0.5 µM on PRMT5 [2]; under 1 µM in the experiment on HAP1 MTAP-deleted; at least 10 µM with HAP1 MTAP-intact; 0.5 to 5 µM at PRMT5 [3]. In addition, the “SAM/MTA Ratio” value on PRMT5 [2] was “A (a Ki ratio greater than or equal to 10 fold between the Ki in the presence of SAM and the Ki in the presence of MTA)”. In addition, in the experiment with HAP1 MTAP-deleted, the “MTAP Intact/Deleted Ratio” value is “A* (an IC50 ratio greater than or equal to 10 fold between the IC50 in the HAP1 MTAP-intact cell line and the HAP1 MTAP-deleted cell line)”.

The values above are taken from US11986471B2, “Compounds and methods of use” (Tango Therapeutics, Inc., priority 2018, dated 2024).
